From publication PMC7178208 (International Journal of Molecular Sciences, 2020)
≈ marks a conversion by molar mass, not a printed value. Peptide text beside a SMILES is read from it. * marks the point of attachment. FITC = O=C1OC2(c3ccc(O)cc3Oc3cc(O)ccc32)c2ccc(NC(=S)*)cc21; Ahx = NCCCCCC(=O)O

Experiments:
[1] = system: C. albicans American Type Culture Collection (ATCC) 10,231; format: cell-based, Candida albicans; conditions: American Type Culture Collection (ATCC) 10,231, 24 h
Procedure: C. albicans (ATCC 10231) from the American Type Culture Collection (Manassas, VA, USA) was cultured at 28 °C on SD agar plates.
To determine the minimum inhibitory concentration (MIC) values of the FITC conjugated-P-113 peptides and their derivatives, a broth microdilution assay was used. Overnight-grown cultures of C. albicans in SD broth were sub-cultured for several hours and subsequently diluted to a final concentration of 5 × 10^4 CFU/mL in Mueller Hinton (MH) broth and LYM broth. A total of 100 μL of diluted microbe was transferred into each well of a 96-well plate, into which a 1 μL dilution series of peptides in sterile water (ranging from 50 to 0.78 μg/mL) was previously added. After incubation for 24 h at 28 ℃, the MIC value of P-113 peptides was determined as the lowest concentration at which no change in optical density was observed. The experiment was conducted three times, and average values were reported.

C. albicans [2] = experiment: Flow cytometry, fluorescence of cells incubated with FITC peptides; format: cell-based, Candida albicans; conditions: 50 μM FITC peptide, 5 × 10^6 CFU/mL, SD broth, 28 °C, 30 min, n = 3
Procedure: Firstly, 5 × 10^6 CFU/mL of C. albicans cells were incubated with 50 µM FITC P-113, FITC N-terminal truncated P-113, and FITC C-terminal truncated P-113 peptides for 30 min at 28 °C in SD broth. The resuspended cell pellets described above were also used for flow cytometry experiments. Flow cytometric cell sorting was performed (10,000 events/sample) by using flow cytometry (BD Accuri™ C6 Plus Flow Cytomete, BD Biosciences, NJ, USA). The quantitative data were analyzed by Prism software.

C. albicans [3] = experiment: Fluorescence microscopy, localization of FITC truncated peptides; format: cell-based, Candida albicans; conditions: 50 μM FITC peptide, 10^7 CFU/mL, SD broth, 28 °C, 30 min
Procedure: Firstly, 10^7 CFU/mL of C. albicans cells were incubated with 50 µM FITC N-terminal truncated P-113, FITC C-terminal truncated P-113 peptides, and FITC alone for 30 min at 28 °C in SD broth. After incubation, the cells were centrifuged at 3500× g for 5 min and then washed three times with 20 mM phosphate buffer (pH 7.4) to remove unbound peptides. The resulting pellets were resuspended and immobilized on the glass slips with a 1.4% solid agarose bed. Fluorescence images were captured using an inverted fluorescence microscope (ECLIPSE E400, Nikon, Tokyo, Japan) with a camera (AxioCam ICc5, ZEISS, Jena, Germany).

Candida albicans = format: cell-based; conditions: 24 h, 1
Procedure: Figure 7 Time killing activity of FITC-labeled P-113 peptide and its FITC-labeled derivatives against Candida albicans. Cells were treated with 1× MIC of (a) P-113 (black circle), FITC-labeled N-terminal truncated P-113 (black square), FITC-labeled C-terminal truncated P-113 (black triangle), and (b) treated with FITC-labeled Bip-P-113 (white square), and FITC-labeled Dip-P-113 (white triangle). Killed cells (%) = (cell number in peptide-free control − cell number in sample)/(cell number in peptide-free control) × 100. Error bars represent the standard errors of the mean.
C. albicans were cultivated onto Sabouraud dextrose agar plates overnight and sub-cultured twice before time killing assays. A total of 5 × 10^4 CFU/mL of C. albicans cells were treated with 1× MIC of FITC-conjugated P-113 peptides and their derivatives in SD broth for 10, 20, 30, 60, and 120 min at 28 °C. After that time, serial dilutions (1:10) of the incubation mixtures were added onto SD agar. The numbers of CFU were counted after 24 h of incubation at 28 °C. The percentage of killed cells was calculated by comparison with the number of cells in a control sample incubated without P-113 peptide. The assays were performed in triplicate.

[4] = system: living C. albicans cells (secreted aspartic proteinases, Saps); experiment: Degradation of P-113 by living C. albicans cells (NMR); format: in vitro ADME, Candida albicans
Procedure: For living cell NMR experiments, the interaction between ^15N-labeled P-113 peptides and C. albicans was monitored by 2D heteronuclear single quantum coherence (HSQC) spectroscopy. The peptides were dissolved in SD broth for a total volume of 500 μL at a 0.275 mM concentration. After centrifugation, 10^7 CFU/mL of cells were resuspended in 50 μL of SD broth and then titrated into the peptide solution. The ^15N-^1H HSQC spectra were recorded on a Bruker Avance 600-MHz NMR spectrometer in the States-TPPI mode for quadrature detection at 301 K. The ^1H and ^15N carriers were placed at 4.699 and 120 ppm, respectively. After titration, 2D HSQC spectra were collected every hour during 24 h of incubation at 301 K. All spectra were processed with NMRPipe and analyzed using the Sparky program (T.D. Goddard and D.G. Kneller, SPARKY3, University of California, San Francisco, CA, USA).
To obtain sequence assignment information, 3D spectra, including those from HNCA, HN(CO)CA, HNCACB, HN(CO)CACB, HN(CA)CO, and HNCO experiments, were recorded on a Bruker Avance 600-MHz NMR spectrometer at 301 K. The ^13C carriers were placed at 48 ppm for C^α, at 38 ppm for ^13C^α/β and at 174 ppm for C′. All spectra were processed with NMRPipe and analyzed using the Sparky program.
To observe the correlation of amide nitrogen (^15Ni) to the carbon (^13C′) spin in the proceeding residue (^13C′i−1), 2D CON experiments were performed on Bruker Avance 850-MHz NMR spectrometer equipped with a triple-resonance cryogenic probe. The spectra comparing ^15N-, ^13C-labeled P-113 in SD broth and in a C. albicans titration were recorded with the center frequencies at 120 ppm (^15N) and 174 ppm (^13C), respectively. All spectra were processed with NMRPipe and analyzed using the Sparky program.
The inhibition of P-113 degradation by C. albicans was determined using living cell NMR experiments as described above in the presence of 0.5 mM of the aspartic protease inhibitor pepstatin A.

C. albicans [5] = experiment: Confocal laser microscopy, localization of FITC peptides; format: cell-based, Candida albicans; conditions: 50 μM FITC-conjugated peptide, 10^7 CFU/mL, SD broth, 28 °C, 5 min
Procedure: Firstly, 10^7 CFU/mL of C. albicans was incubated with 0.25 mM FITC P-113 and 0.25 mM FITC alone (as a negative control) in SD broth at 28 °C for 1, 2, 3, 4, 5, and 6 h. Another experiment was performed to observe the short-term localization of Bip-P-113 and Dip-P-113 peptides. Briefly, log-phase C. albicans cultures were resuspended to a cell density of 10^7 CFU/mL in SD broth and treated for 5 min at 28 °C with 50 μM FITC-conjugated P-113, Bip-P-113, and Dip-P-113. After centrifugation, the cells were washed three times with 20 mM phosphate buffer (pH 7.4) to remove nonbinding peptides and fixed with 4% (w/v) paraformaldehyde in 20 mM phosphate buffer (pH 7.4) at room temperature for 20 min. Following fixation, the cells were centrifuged at 3500× g for 5 min, resuspended in phosphate buffer, and loaded onto a glass slide with a 1.4% solid agarose bed. The images were taken with a confocal laser scanning microscope (LSM 510 META, Carl Zeiss, Jena, Germany) equipped with a 40× C-Apochromat water-immersion objective lens (Carl Zeiss, Jena, Germany).

C. albicans [6] = experiment: Scanning electron microscopy, cell morphology; format: cell-based, Candida albicans; conditions: 0.25 mM P-113, 10^7 CFU/mL, SD broth, 28 °C, 1-6 h
Procedure: Time-course morphological studies of C. albicans were performed by scanning electron microscopy (SEM). Overnight cultures of C. albicans were sub-cultured and grown in SD broth. Then, 10^7 CFU/mL of C. albicans was treated with 0.25 mM P-113 in SD broth at 28 °C. Samples were collected following 1, 2, 3, 4, 5, and 6 h of incubation. Another experiment was performed to observe the morphological changes caused over in a short time caused by Bip-P-113 and Dip-P-113. Briefly, 10^7 CFU/mL of C. albicans in SD broth was treated for 5 min at 28 °C with 50 μM P-113, Bip-P-113, and Dip-P-113. After harvest, cells were resuspended in fixation solution (2.5% glutaraldehyde in 20 mM phosphate buffer pH 7.4) and then placed on Thermanox substrate-coated cover slips at 4 °C for 12 h. The cover slips were carefully washed three times with 20 mM phosphate buffer (pH 7.4), followed by incubation in post-fixation solution (1% OsO4 in 20 mM phosphate buffer pH 7.4) at room temperature for an hour. After being washed three times with 20 mM phosphate buffer (pH 7.4), the cover slips were air-dried for an hour by dehydration with a graded series of ethanol. Samples were gold-coated and observed under an S-4700 field-emission (FE)-SEM (Hitachi, Ltd., Tokyo, Japan) at an acceleration voltage of 5 kV.

[7] = 0.01% P-113 (0.07 μM) in a mouthrinse treatment, clinical trial; cited from earlier work

SMILES | MIC, LYM Control [1] [µg/mL] | MIC, MH Broth [1] [µg/mL] | Fluorescence intensity of cells compared with cells incubated with intact P-113 (C. albicans [2]) | Green fluorescence in cells compared with N-terminal truncated P-113 (C. albicans [3]) | Killed cells (Candida albicans) [%] | Cleavage sites ([4]; 0.25 mM 15N-,13C-labeled P-113, 10^7 CFU/mL C. albicans, SD broth, 301 K, 24 h, 15N-13C CON and 3D backbone assignment) | Incubation time to near-complete degradation of P-113 ([4]; 0.25 mM 15N-labeled P-113 (no FITC), 10^7 CFU/mL C. albicans, SD broth with 10% D2O, 301 K, 1H-15N HSQC every hour) [h] | Time at which the first cleavage (Lys10-Phe11) was observed ([4]; 0.25 mM 15N-labeled P-113, 10^7 CFU/mL C. albicans, SD broth, 301 K, new HSQC cross-peaks) [h] | Changes in 1H-15N HSQC chemical shifts (degradation) in the presence of pepstatin A ([4]; 0.25 mM P-113, 10^7 CFU/mL C. albicans + 0.5 mM pepstatin A, 301 K, 24 h) | Changes in chemical shifts (degradation) at cell densities below 10^7 cells/mL ([4]; 0.25 mM P-113, C. albicans below 10^7 cells/mL, data not shown) | Cellular localization of FITC peptide (C. albicans [5]) | Cell surface morphology (SEM), time course (C. albicans [6]) | Effect on gingivitis and plaque [7]
C[C@H](NC(=O)CCCCCNC(=S)Nc1ccc2c(c1)C(=O)OC21c2ccc(O)cc2Oc2cc(O)ccc21)C(=O)N[C@@H](CCCCN)C(=O)N[C@@H](CCCNC(=N)N)C(=O)N[C@@H](Cc1c[nH]cn1)C(=O)N[C@@H](Cc1c[nH]cn1)C(=O)NCC(=O)N[C@@H](Cc1ccc(O)cc1)C(=O)N[C@@H](CCCCN)C(=O)N[C@@H](CCCNC(=N)N)C(=O)N[C@@H](CCCCN)C(N)=O [C-ter truncated P-113] ({FITC-Ahx}-AKRHHGYKRK-NH2; N-terminus assumed) | 50 (≈ 28.1 µM) | >50 | dramatic decrease in fluorescence intensity | less green fluorescence |  |  |  |  |  |  |  |  | 
C[C@H](NC(=O)CCCCCNC(=S)Nc1ccc2c(c1)C(=O)OC21c2ccc(O)cc2Oc2cc(O)ccc21)C(=O)N[C@@H](CCCCN)C(=O)N[C@@H](CCCNC(=N)N)C(=O)N[C@@H](Cc1c[nH]cn1)C(=O)N[C@@H](Cc1c[nH]cn1)C(=O)NCC(=O)N[C@@H](Cc1ccc(O)cc1)C(=O)N[C@@H](CCCCN)C(=O)N[C@@H](CCCNC(=N)N)C(=O)N[C@@H](CCCCN)C(=O)N[C@@H](Cc1ccccc1)C(=O)N[C@@H](Cc1c[nH]cn1)C(N)=O [Peptide P-113] ({FITC-Ahx}-AKRHHGYKRKFH-NH2; N-terminus assumed) | 3.13 (≈ 1.51 µM) | >50 |  |  | 87 | Tyr7-Lys8, Lys8-Arg9, and Lys10-Phe11 | 5 | 1 | no noticeable changes | did not show any noticeable changes | accumulated in the cytosol | smooth | reduced the development of gingivitis and plaque
